# Laboratory results reported in patent US11413261B2, “Pharmaceutical composition for treating cancer comprising lactate metal salt” (METIMEDI PHARMACEUTICALS CO., LTD, priority 2014, dated 2022).
# What was measured:
# [1] = test system: colorectal cancer cell line HCT-116; assay: Cell migration of colorectal cancer cell line (culture insert); format: cell-based; conditions: 2.5 mM, 24 hours, then 12 hours after insert removal
# Experimental: A colorectal cancer cell line HCT-116 with the cell number of 4×10^5 cells was inoculated into a culture container at the center of which an ibidi culture insert having a thickness of 500 μm was placed, and treated with 2.5 mM calcium lactate and then cultured for 24 hours. Then, the insert was removed and further cultured for 12 hours to analyze migration of the cancer cells to a site where the insert was removed using a JuLi Br, Live cell analyzer (NanoEnTek Inc., South Korea) (FIG. 18). In this case, a colorectal cancer cell line cultured without treating with calcium lactate was used as a control group.
# [2] = test system: HIF-1α; assay: HIF-1α expression in tumor tissues of animal model; format: in vivo, Balb/c mice; conditions: HT-29 tumor tissue
# Experimental: A colorectal cancer cell (HT-29) cultured in an RPMI1640 medium and then diluted with PBS was subcutaneously implanted into the flank of Balb/c mice. The mice were bred until the colorectal cancer cell grew to about 5 mm. Then, four groups were set up; a control group untreated with calcium lactate for 30 days, an experimental group 1 (peroral, P.O.) administered with 2.5 mM calcium lactate by oral administration, an experimental group 2 (intra tumor, I.T) injected with 2.5 mM calcium lactate around tumor, and an experimental group 3 (subcutaneous, S.C) subcutaneously injected with 25 mM calcium lactate (FIG. 27).
# Colorectal cancer tissues were extracted from the mice of the control group or the experimental group 1 set up in Example 10-1, and expression levels of HIF-1α and VEGF involved in metastasis, invasion, and angiogenesis of tumor expressed therein were compared (FIG. 29). In this case, GAPDH was used as internal control groups.
# Colorectal cancer tissues were extracted from the mice of the control group or the experimental group 2 set up in Example 10-1, and expression levels of HIF-1α and VEGF involved in metastasis, invasion, and angiogenesis of tumor therein were compared (FIG. 31). In this case, GAPDH was used as internal control groups.
# [3] = test system: human colorectal cancer cell line HCT-116; conditions: 5 mM calcium lactate individually, 10 days
# [4] = test system: HIF-1α (hypoxia inducible factor 1α); assay: HIF-1α protein expression (Western blot); format: cell-based, human; conditions: HCT-116 and HT-29, hypoxia condition
# Experimental: Human colorectal cancer cell lines (HCT-116 and HT-29) were cultured for 24 hours, under normoxia or hypoxia condition either treated or not treated with 2.5 mM calcium lactate. Then, a Western blot using an anti-HIF-1α antibody was conducted to each of the cultured cancer cell lines (upper part of FIG. 15).
# Then, the human colorectal cancer cell lines (HCT-116 and HT-29) were treated with various concentrations (0.5 mM, 1.5 mM and 2.5 mM) of the calcium lactate under hypoxia condition and cultured and change in expression levels of HIF-1α in a nucleus of a cancer cell was measured (lower part of FIG. 15).
# [5] = test system: human breast cancer cell line (MCF-7); assay: Colony-forming ability, anticancer drug in combination with calcium lactate (6-well plates); format: cell-based; conditions: 2.5 mM calcium lactate alone, vs control
# Experimental: Human breast cancer cell line (MCF-7) and a human lung cancer cell line (A549) with the cell number of 1×10^3 cells were seeded into an RPMI1640 medium in each of 6-well plates. […] Then, the colony-forming abilities of the cells were compared. In this case, a human breast cancer cell line (MCF-7) and a human lung cancer cell line (A549) untreated with any drug were used as control groups (FIGS. 42a, 42b, 43a and 43b).
# Human breast cancer cell line (MCF-7) with the cell number of 1×10^3 cells were seeded into an RPMI1640 medium in each of 6-well plates. After one day, the medium was replaced with fresh medium and the cells were treated with 2.5 mM calcium lactate or 2 μM, 4 μM, and 8 μM Lapatinib alone or treated with various concentrations (2 μM, 4 μM, and 8 μM) of Lapatinib in combination with 2.5 mM calcium lactate. Then, the colony-forming abilities of the cells were compared. In this case, a human breast cancer cell line (MCF-7) untreated with any drug was used as a control group (FIGS. 52a and 52b).
# [6] = test system: VEGF (vascular endothelial growth factor); assay: VEGF mRNA and protein expression; format: cell-based, human; conditions: HCT-116 and HT-29; 2.5 mM, 24 hours, hypoxia condition
# Experimental: Human colorectal cancer cell lines (HCT-116 and HT-29) were treated with 2.5 mM calcium lactate under hypoxia condition and cultured for 24 hours. Then, mRNA expression levels and protein expression levels of VEGF in each of the cultured cancer cell lines were analyzed (FIGS. 16a and 16b). In this case, human colorectal cancer cell lines cultured without treating with calcium lactate under normoxia or hypoxia condition were used as control groups.
# [7] = test system: PARP; assay: PARP protein expression in HCT-116 treated with calcium lactate, IS, CA alone or in combination; format: cell-based, human; conditions: 5 mM calcium lactate alone, 24 hours
# Experimental: The protein expression levels of PARP expressed in the colorectal cancer cell line were compared (FIG. 9) after a human colorectal cancer cell line (HCT-116) was treated individually or in combination for 24 hours with 5 mM calcium lactate, 5-indane sulfornamide (IS) as an inhibitor of carbonic anhydrase, or cinnamic acid (CA) as an inhibitor of MCT-4 which is a pathway of lactate. In this case, an untreated cancer cell line was used as a control group.
# [8] = test system: human colorectal cancer cell lines (HCT-116 and HT-29); assay: pH inside and outside cancer cell; format: cell-based; conditions: 2.5 mM
# Experimental: Specifically, with the cells cultured in Example 2-1, an extracellular pH was measured with a pH meter from the medium for the cells treated with calcium lactate and then cultured and an intracellular pH was measured with a pH detection kit (Life Technologies, CA) from the cells treated with calcium lactate and then cultured (FIG. 4). In this case, cancer cells untreated with calcium lactate were used as control groups.
# [9] = Structure and binding energy analysis of metal lactate salts; format: physicochemical; conditions: as compared to sodium lactate and potassium lactate (FIG. 1)
# Source text: Calcium carbonate, sodium carbonate, or potassium carbonate was reacted with lactate so as to obtain metal lactate salt (calcium lactate, sodium lactate, or potassium lactate) solutions, respectively. Each of them was filtered, dried, and pulverized so as to obtain metal lactate salt (calcium lactate, sodium lactate, or potassium lactate) in the form of powder. Then, the structure and binding energy of the obtained metal lactate salts (calcium lactate, sodium lactate, or potassium lactate) were analyzed (FIG. 1).
# [10] = test system: human breast cancer cell line (MCF-7) showing a resistance to Trastuzumab; assay: Colony-forming ability, Trastuzumab in combination with calcium lactate (6-well plates); format: cell-based; conditions: Trastuzumab-resistant MCF-7; 2.5 mM calcium lactate alone; vs control
# Source text: Then, the colony-forming abilities of the cells were compared. In this case, a human breast cancer cell line (MCF-7) untreated with any drug was used as a control group (FIGS. 54a and 54b).
compound,measurement,setting,value
CC(O)C(=O)[O-].CC(O)C(=O)[O-].[Ca+2] (stereo not shown) [calcium lactate],cell migration,[1],decreased
same,expression of HIF-1α,"[2]; experimental group 1, 2.5 mM oral administration",inhibited
same,expression of HIF-1α,"[2]; experimental group 2, 2.5 mM injected around tumor",inhibited
same,survival rate,[3],about 60%
same,protein expression levels of HIF-1α,"[4]; 2.5 mM, 24 hours",not expressed
same,expression levels of HIF-1α in a nucleus of a cancer cell,"[4]; 0.5, 1.5, 2.5 mM",suppresses the expression levels of HIF-1α concentration dependently
same,colony-forming ability,[5],suppressed
same,VEGF level (mRNA and protein),[6],decreased
same,protein expression levels of PARP,[7],decreased
same,intracellular pH,[8]; pH detection kit,decreased to acidic condition
same,extracellular pH,"[8]; pH meter, medium",not changed
same,binding energy,[9],relatively high binding energy
same,colony-forming ability,[10],decreased
